Assay results taken from patent US8586611B2 (priority 2005, dated 2013).

Columns and labels:
Assay type in all cases: in vivo
[1] = tested on: Pseudoperonospora cubensis; experiment: Test F: cucumber downy mildew, DMSO/acetone/water test suspension, spray the day before inoculation (disease rating, 100 = 100% disease control)
Method in brief: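 Compounds in DMSO (4% of final volume) suspended in 30/70 acetone/water and sprayed on cucumber seedlings; 250 ppm corresponds to 250 g/ha. Spore inoculation the next day, 24 h saturated humidity at 20° C., then 6 days at 20° C. Rating 0–100 is disease control relative to controls.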

[2] = tested on: Pseudoperonospora cubensis; experiment: Test A: cucumber downy mildew, spray the day before inoculation (disease rating, 100 = 100% disease control)
Method in brief: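 Cucumber seedlings were sprayed to run-off with compound suspended in acetone/water containing 250 ppm Trem 014 (200 ppm equated to 500 g/ha), then inoculated with P. cubensis spores the next day. Plants were kept 24 h at 20 °C in saturated humidity, then 6 days at 20 °C, before disease rating relative to controls.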

[3] = tested on: Erysiphe graminis f. sp. tritici; experiment: Test E: wheat powdery mildew, spray the day before inoculation (disease rating, 100 = 100% disease control)
Method in brief: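 Wheat seedlings sprayed to run-off with compound suspended in acetone/water 50/50 with 250 ppm Trem 014 (200 ppm equivalent to 500 g/ha); inoculated next day with Erysiphe graminis f. sp. tritici spore dust. Kept 7 days at 20° C, then rated 0–100% disease control versus controls.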

[4] = tested on: Phytophthora infestans; experiment: whole plant or invertebrate; conditions: tomato late blight
[5] = tested on: Plasmopara viticola; experiment: Test B: grape downy mildew, spray 24 h after inoculation (disease rating, 100 = 100% disease control)
Method in brief: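 Grape seedlings were inoculated with Plasmopara viticola and held 24 h saturated at 20 °C, then sprayed to run-off with compound suspension (acetone/water with 250 ppm Trem 014; 200 ppm ≈ 500 g/ha). After 5 days at 20 °C and 24 h saturation, disease was rated from 0 to 100% control versus untreated.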

[6] = DMSO/acetone/water suspension, spray the day before inoculation, compounds without asterisk
[7] = spray the day before inoculation, compounds without asterisk (not 40 or 10 ppm)
[8] = spray 24 h after inoculation, compounds without asterisk (not 40 or 10 ppm)
[9] = sprayed the day before inoculation, unmarked compounds (no asterisk, not 40 or 10 ppm)

| Compound | Test F disease rating (100 = 100% disease control, 0 = no disease control) [1, 6] [%] | Test A disease rating (100 = 100% disease control, 0 = no disease control) [2, 7] [%] | Test E disease rating (100 = 100% disease control, 0 = no disease control) [3, 7] [%] | Test C disease rating (100 = 100% disease control, 0 = no disease control) [4, 7] [%] | Test B disease rating (100 = 100% disease control, 0 = no disease control) [5, 8] [%] | Test F disease rating (100 = 100% disease control, 0 = no disease control) ([1]; DMSO/acetone/water test suspension, sprayed the day before inoculation, unmarked compounds (no asterisk)) | Test A disease rating (100 = 100% disease control, 0 = no disease control) [2, 9] | Test E disease rating (100 = 100% disease control, 0 = no disease control) ([3]; sprayed the day before inoculation, 7 days at 20° C., unmarked compounds (no asterisk, not 40 or 10 ppm)) | Test C disease rating (100 = 100% disease control, 0 = no disease control) [4, 9] | Test B disease rating (100 = 100% disease control, 0 = no disease control) ([5]; sprayed 24 h after inoculation, unmarked compounds (no asterisk, not 40 or 10 ppm)) |
| --- | --- | --- | --- | --- | --- | --- | --- | --- | --- | --- |
| C[C@H](c1ccccc1)N(C)C(=O)c1csc(C2CCN(C(=O)Cc3cc(C(F)(F)F)ccc3Cl)CC2)n1 [compound 39] | 100 | 100 | 85 | 100 | 100 |  |  |  |  |  |
| C[C@H](c1ccccc1)N(C)C(=O)c1csc(C2CCN(C(=O)Cc3ccc(F)c(F)c3)CC2)n1 [compound 38] | 43 | 0 | 55 | 0 | 45 |  |  |  |  |  |
| COc1ccccc1CC(=O)N1CCC(c2nc(C(=O)N(C)[C@H](C)c3ccccc3)cs2)CC1 [compound 41] | 82 | 100 | 0 | 100 | 94 |  |  |  |  |  |
| 2-[1-[[5-ethyl-3-(trifluoromethyl)-1H-pyrazol-1-yl]acetyl]-4-piperidinyl]-N-methyl-N-[(1R)-1,2,3,4-tetrahydro-1-naphthalenyl]-4-thiazolecarboxamide [Compound 208] | 99 | 100 | 0 | 100 | 95 |  |  |  |  |  |
| N-methyl-2-[1-[[5-methyl-3-(trifluoromethyl)-1H-pyrazol-1-yl]acetyl]-4-piperidinyl]-N-[(1R)-1,2,3,4-tetrahydro-1-naphthalenyl]-2H-1,2,3-triazole-4-carboxamide [Compound 232] | 93 | 87 | 0 | 95 | 0 |  |  |  |  |  |
| N#CC(NC(=O)c1csc(C2CCN(C(=O)Cc3cccc(Br)c3)CC2)n1)c1ccccc1 (stereo not drawn) [compound 282] |  |  |  |  |  | 39 | 55 | 0 | 0 | 8 |
| N-methyl-2-[1-[[5-methyl-3-(trifluoromethyl)-1H-pyrazol-1-yl]acetyl]-4-piperidinyl]-N-[(1R)-1,2,3,4-tetrahydro-1-naphthalenyl]-4-thiazolecarbothioamide [Compound 289] | 47 | 100 | 0 | 98 | 33 |  |  |  |  |  |
| N-methyl-1-[1-[[5-methyl-3-(trifluoromethyl)-1H-pyrazol-1-yl]acetyl]-4-piperidinyl]-N-[(1R)-1,2,3,4-tetrahydro-1-naphthalenyl]-1H-pyrazole-3-carboxamide [Compound 231] | 96 | 100 | 0 | 100 | 80 |  |  |  |  |  |
| CN(CCc1ccccc1)C(=O)c1csc(C2CCN(C(=O)Cc3ccccc3Cl)CC2)n1 [compound 162] | 43 | 0 | 42 | 15 | 14 |  |  |  |  |  |
